Assay results: ChEMBL document CHEMBL4627392, “Streptomyces albogriseolus SY67903 Produces Eunicellin Diterpenoids Structurally Similar to Terpenes of the Gorgonian Muricella sibogae, the Bacterial Source” (J Nat Prod, 2020)
pIC50: −log10 of the molar value. Active and inactive are the calls of the source. No cut-off for these calls is given here.

How the values were obtained:
Assay type in all cases: functional, cell-based
HCT-116 = assay: Cytotoxicity against human HCT116 cells after 44 hrs by MTT assay
MDA-MB-231 = assay: Cytotoxicity against human MDA-MB-231 cells after 44 hrs by MTT assay; conditions: MDA-MB-231, 44 h
A549 = assay: Cytotoxicity against human A549 cells after 44 hrs by MTT assay
MCF7 = assay: Cytotoxicity against human MCF7 cells after 44 hrs by MTT assay; conditions: MCF7, 44 h
NCI-H292 = assay: Cytotoxicity against human NCI-H292 cells after 44 hrs by MTT assay
HepG2 = assay: Cytotoxicity against human HepG2 cells after 44 hrs by MTT assay

| Structure (SMILES) | Activity (HCT-116) | pIC50 (MDA-MB-231) | Activity (A549) | pIC50 (MCF7) | Activity (NCI-H292) | Activity (HepG2) | pIC50 (HCT-116; HCT-116, 44 h) | pIC50 (A549; A549, 44 h) | pIC50 (NCI-H292; NCI-H292, 44 h) | pIC50 (HepG2; HepG2, 44 h) |
| --- | --- | --- | --- | --- | --- | --- | --- | --- | --- | --- |
| C=C1CCC(=C(C)C)[C@H]2/C=C(/C(=O)OC)CC/C=C(\C(=O)O)[C@H](O)C[C@H]12 | Active | 5.07 | Active | 5.28 | Active | Active | – | – | – | – |
| C=C1CC[C@@H](C(C)C)[C@H]2/C=C(/C(=O)OC)CC/C=C(\C(=O)O)[C@H](O)C[C@H]12 | – | < 4.00 | – | < 4.00 | – | – | < 4.00 | < 4.00 | < 4.00 | < 4.00 |
